Data on nine compounds can be found in publication PMC3360617, “Pan-Pathway Based Interaction Profiling of FDA-Approved Nucleoside and Nucleobase Analogs with Enzymes of the Human Nucleotide Metabolism” (PLoS ONE, 2012).

In one experiment the target is T1, deoxycytidine kinase (Homo sapiens, UniProt P27707).
T1 construct: gene DCK
Kind of experiment: thermal shift assay (DSLS), concentration-dependent. Type of experiment: binding. As to conditions: read-out: 500 μM NA (+1 mM ATP).

Experiment [1] addresses T2, Guanine deaminase (Homo sapiens, UniProt Q9Y2T3).
T2 construct: gene GDA
T2 sequence (Q9Y2T3 1-454): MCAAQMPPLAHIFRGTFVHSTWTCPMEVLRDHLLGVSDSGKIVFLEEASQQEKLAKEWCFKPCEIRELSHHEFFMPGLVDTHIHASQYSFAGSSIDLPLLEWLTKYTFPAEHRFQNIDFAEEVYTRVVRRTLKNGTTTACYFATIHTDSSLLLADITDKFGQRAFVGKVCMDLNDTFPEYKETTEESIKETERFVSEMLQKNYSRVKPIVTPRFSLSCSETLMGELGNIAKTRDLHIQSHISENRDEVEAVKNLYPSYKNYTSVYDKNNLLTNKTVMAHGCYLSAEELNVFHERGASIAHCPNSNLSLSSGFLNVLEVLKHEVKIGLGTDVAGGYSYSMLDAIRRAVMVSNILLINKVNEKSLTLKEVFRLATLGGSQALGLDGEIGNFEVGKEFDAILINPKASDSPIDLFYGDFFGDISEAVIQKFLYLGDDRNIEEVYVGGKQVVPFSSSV
The description is as above. Type of experiment: binding.

In experiment [2] the target is T3, Uridine phosphorylase 1 (Homo sapiens, UniProt Q16831).
T3 construct: gene UPP1
T3 sequence (Q16831 whole entry): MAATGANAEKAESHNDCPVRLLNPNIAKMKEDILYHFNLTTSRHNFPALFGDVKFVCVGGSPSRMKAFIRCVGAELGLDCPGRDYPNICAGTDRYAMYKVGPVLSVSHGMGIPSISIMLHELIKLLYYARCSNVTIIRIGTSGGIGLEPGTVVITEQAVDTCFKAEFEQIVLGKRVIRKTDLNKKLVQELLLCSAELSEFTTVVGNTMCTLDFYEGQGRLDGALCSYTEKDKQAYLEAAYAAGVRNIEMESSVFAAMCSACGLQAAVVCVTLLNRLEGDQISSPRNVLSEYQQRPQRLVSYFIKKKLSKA
Described as above. Type of experiment: binding. As to conditions: read-out: delta_Tm.

Experiment [3] has as its target T3, Uridine phosphorylase 1. Briefly: thermal shift assay (DSLS), concentration-dependent; enhanced by […] ribose-1-phosphate. Type of experiment: binding. As to conditions: read-out: ΔTagg (NA+R1P).
Experiment [4] has as its target T2, Guanine deaminase. Kind of experiment: co-crystal structure at […] Å; thermal shift (DSLS), concentration-dependent. As to conditions: read-out: delta_Tm. Type of experiment: binding.
In experiment [5] the target is T3, Uridine phosphorylase 1. Kind of experiment: HPLC enzyme kinetics with uridine (Lineweaver-Burk); also thermal shift ([…]°C at […]). Type of experiment: biochemical.

T1 sequence (P27707 whole entry): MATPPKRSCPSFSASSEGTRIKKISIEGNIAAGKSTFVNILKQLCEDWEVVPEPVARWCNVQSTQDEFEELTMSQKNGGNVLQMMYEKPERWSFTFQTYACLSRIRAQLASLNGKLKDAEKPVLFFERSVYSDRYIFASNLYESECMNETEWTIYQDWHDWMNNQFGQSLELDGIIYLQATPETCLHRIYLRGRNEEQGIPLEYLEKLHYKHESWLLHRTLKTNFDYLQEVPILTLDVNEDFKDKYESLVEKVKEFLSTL

For `Nc1ncn([C@H]2C[C@H](O)[C@@H](CO)O2)c(=O)n1` [Decitabine], the ΔTm at 500 µM at deoxycytidine kinase stood at 7.29 °C.
The same measure, in the same setting: the same measure for `Nc1ccn([C@@H]2O[C@H](CO)[C@@H](O)C2(F)F)c(=O)n1` [Gemcitabine]: 5.22 °C.
As to `Nc1nc2c(ncn2COCCO)c(=O)[nH]1` [aciclovir], at Guanine deaminase [1], the “thermal shift assay (DSLS), concentration-dependent” value (“thermal shift assay (DSLS)” below) was “Interactions were detected between GDA and valaciclovir, aciclovir, penciclovir, ganciclovir, thioguanine and mercaptopurine”.
On to `O=c1[nH]c(=O)n([C@H]2C[C@H](O)[C@@H](CO)O2)cc1I` [idoxuridine], for which the ΔTm at 500 µM at Uridine phosphorylase 1 [2] stood at 1.72 °C.
As for `Nc1nc2c(ncn2CCC(CO)CO)c(=O)[nH]1` [penciclovir], the “thermal shift assay (DSLS)” value on Guanine deaminase [1] was “Thioguanine, ganciclovir, aciclovir, penciclovir, valaciclovir, flucytosine and idoxuridine showed concentration-dependent stabilization of GDA”.
In the case of `Nc1nc2nc[nH]c2c(=S)[nH]1` [thioguanine], on Guanine deaminase [1], the “thermal shift assay (DSLS)” value was “followed in decreasing order by thioguanine, acyclovir, penciclovir, ganciclovir and mercaptopurine”.
For the compound `O=c1[nH]c(=O)n([C@H]2C[C@H](O)[C@@H](CO)O2)cc1C(F)(F)F` [trifluridine], the ΔTm at 500 µM at Uridine phosphorylase 1 [3] turned out to be 3.78 °C.
Take `CC(C)[C@H](N)C(=O)OCCOCn1cnc2c(=O)[nH]c(N)nc21` [valaciclovir]: the ΔTm at 1000 µM on Guanine deaminase [4] is ~7 °C.
As usually defined, the Ki is the dissociation constant of the complex between target and ligand, obtained from inhibition or displacement. In the case of `Nc1ncnc2c1ncn2[C@@H]1O[C@H](CO)[C@@H](O)[C@@H]1O` [vidarabine], the inhibitory constant (Ki) on Uridine phosphorylase 1 [5] worked out at 390 µM.
